Results as given in the supplement of paper PMC4862054.

What was measured:
Conditions in all cases: incubation time: 72 h
CAL-148 [1] = assay: normalised response (% of control), CellTox Green; higher = less cell death (100 = DMSO, 0 = benzethonium chloride kill control)
Outline: (§1)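 A 20 µl suspension of breast cancer cells was seeded into each well of 384-well plates containing compound at 5 concentrations in 10-fold steps over a compound-specific 10,000-fold range. After 72 h incubation, CellTox Green fluorescence (485/520 nm) was read first, and CellTiter-Glo luminescence was read after 10 min at room temperature. Each plate was normalised against 0.1 % DMSO (100) and a positive kill control (0), and each value is the normalised signal at one concentration.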

CAL-85-1 [2] = assay: as above
Outline: as §1

HCC1143 [3] = assay: as above
Outline: as §1

BT-474 [4] = assay: as above
Outline: as §1

MFM-223 [5] = assay: as above
Outline: as §1

MDA-MB-468 [6] = assay: as above
Outline: as §1

MDA-MB-453 [7] = assay: as above
Outline: as §1

HDQ-P1 [8] = assay: as above
Outline: as §1

BT-549 [9] = assay: as above
Outline: as §1

MDA-MB-436 [10] = assay: as above
Outline: as §1

MCF-10A [11] = assay: as above
Outline: as §1

MDA-MB-231 [12] = assay: as above
Outline: as §1

CAL-51 [13] = assay: as above
Outline: as §1

Hs578T [14] = assay: as above
Outline: as §1

HCC1937 [15] = assay: as above
Outline: as §1

CAL-120 [16] = assay: as above
Outline: as §1

DU-4475 [17] = assay: as above
Outline: as §1

HCC1599 [18] = assay: as above
Outline: as §1

CAL-148 [19] = assay: normalised response (% of control), CellTiter-Glo; higher = more viable cells (100 = DMSO, 0 = benzethonium chloride kill control)
Outline: as §1

CAL-85-1 [20] = assay: as above
Outline: as §1

HCC1143 [21] = assay: as above
Outline: as §1

BT-474 [22] = assay: as above
Outline: as §1

MFM-223 [23] = assay: as above
Outline: as §1

MDA-MB-468 [24] = assay: as above
Outline: as §1

MDA-MB-453 [25] = assay: as above
Outline: as §1

HDQ-P1 [26] = assay: as above
Outline: as §1

BT-549 [27] = assay: as above
Outline: as §1

MDA-MB-436 [28] = assay: as above
Outline: as §1

MCF-10A [29] = assay: as above
Outline: as §1

MDA-MB-231 [30] = assay: as above
Outline: as §1

CAL-51 [31] = assay: as above
Outline: as §1

Hs578T [32] = assay: as above
Outline: as §1

SK-BR-3 = assay: as above
Outline: as §1

HCC1937 [33] = assay: as above
Outline: as §1

CAL-120 [34] = assay: as above
Outline: as §1

DU-4475 [35] = assay: as above
Outline: as §1

HCC1599 [36] = assay: as above
Outline: as §1

CAL-148 [37] = assay: normalised viability (% of control), CellTiter-Blue; higher = more viable cells (about 100 = DMSO control)
Procedure: (§2)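 DSRT, CellTiter-Blue viability, 72 h incubation. Signal is normalised to DMSO and benzethonium chloride controls. Value is the normalised response at dose 7.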

CAL-85-1 [38] = assay: as above
Procedure: as §2

MDA-MB-453 [39] = assay: as above
Procedure: as §2

HDQ-P1 [40] = assay: as above
Procedure: as §2

CAL-51 [41] = assay: as above
Procedure: as §2

DU-4475 [42] = assay: as above
Procedure: as §2

Row | Compound | normalised response (CAL-148 [1]) [%] | normalised response (CAL-85-1 [2]) [%] | normalised response (HCC1143 [3]) [%] | normalised response (BT-474 [4]) [%] | normalised response (MFM-223 [5]) [%] | normalised response (MDA-MB-468 [6]) [%] | normalised response (MDA-MB-453 [7]) [%] | normalised response (HDQ-P1 [8]) [%] | normalised response (BT-549 [9]) [%] | normalised response (MDA-MB-436 [10]) [%] | normalised response (MCF-10A [11]) [%] | normalised response (MDA-MB-231 [12]) [%] | normalised response (CAL-51 [13]) [%] | normalised response (Hs578T [14]) [%] | normalised response (HCC1937 [15]) [%] | normalised response (CAL-120 [16]) [%] | normalised response (DU-4475 [17]) [%] | normalised response (HCC1599 [18]) [%] | normalised response (CAL-148 [19]) [%] | normalised response (CAL-85-1 [20]) [%] | further results
1 | c1cc(CN2CCCNCCNCCCNCC2)ccc1CN1CCCNCCNCCCNCC1 [Plerixafor] (100 nM) | 94.4 | 92.5 | 95.1 | 85.5 | 50.4 | 89.8 | 91.3 | 101 | 95.9 | 74.2 | 97.7 | 96.5 | 59.6 | 99.3 | 73.9 | 93.5 | 91.7 | 88.9 | 89.8 | 101 | normalised response (HCC1143 [21]): 104%; normalised response (BT-474 [22]): 98.8%; normalised response (MFM-223 [23]): 85.1%; normalised response (MDA-MB-468 [24]): 97.6%; normalised response (MDA-MB-453 [25]): 83%; normalised response (HDQ-P1 [26]): 103%; normalised response (BT-549 [27]): 109%; normalised response (MDA-MB-436 [28]): 92%; normalised response (MCF-10A [29]): 79.7%; normalised response (MDA-MB-231 [30]): 97.1%; normalised response (CAL-51 [31]): 67.7%; normalised response (Hs578T [32]): 94.8%; normalised response (SK-BR-3): 84.1%; normalised response (HCC1937 [33]): 96.6%; normalised response (CAL-120 [34]): 100%; normalised response (DU-4475 [35]): 88.1%; normalised response (HCC1599 [36]): 95.3%
2 | Cc1cccc(-c2nn3c(c2-c2ccnc4ccc(C(N)=O)cc24)CCC3)n1 (100 nM) | – | – | – | – | – | – | – | – | – | – | – | – | – | – | – | – | – | – | – | – | normalised viability (CAL-148 [37]): 104%; normalised viability (CAL-85-1 [38]): 89.5%; normalised viability (MDA-MB-453 [39]): 93.4%; normalised viability (HDQ-P1 [40]): 120%; normalised viability (CAL-51 [41]): 97.6%; normalised viability (DU-4475 [42]): 108%
3 | CC/C(=C(\c1ccc(O)cc1)c1ccc(OCCN(C)C)cc1)c1ccccc1 [4-hydroxytamoxifen] (100 nM) | 99.1 | 113 | 115 | 105 | 106 | 106 | 111 | 87.3 | 104 | 108 | 93 | 117 | 98.1 | 50.3 | 89.2 | 98.8 | 108 | 114 | 99.9 | 105 | normalised response (HCC1143 [21]): 96.2%; normalised response (BT-474 [22]): 99.1%; normalised response (MFM-223 [23]): 99.1%; normalised response (MDA-MB-468 [24]): 93.2%; normalised response (MDA-MB-453 [25]): 111%; normalised response (HDQ-P1 [26]): 95.9%; normalised response (BT-549 [27]): 107%; normalised response (MDA-MB-436 [28]): 94.9%; normalised response (MCF-10A [29]): 106%; normalised response (MDA-MB-231 [30]): 100%; normalised response (CAL-51 [31]): 99%; normalised response (Hs578T [32]): 98%; normalised response (SK-BR-3): 101%; normalised response (HCC1937 [33]): 95%; normalised response (CAL-120 [34]): 105%; normalised response (DU-4475 [35]): 104%; normalised response (HCC1599 [36]): 91.5%
